Test results reported in patent US9650389B2, “8-oxoprotoberberine derivative or pharmaceutically acceptable salt thereof, preparation method therefor and pharmaceutical composition for preventing or treating diseases associated with activity of NFAT5, containing same as active ingredient” (Korea Research Institute of Chemical Technology, priority 2013, dated 2017).

Columns and labels:
[1] = Cytotoxicity test (WST-8), L929; type: cell-based; settings: mouse, L929 fibroblast cells (NCTC clone 929); L929, 24 hours
Protocol: (§1) To investigate the cytotoxicity of the derivative of the present invention, 5 kinds of cell lines (VERO: African green monkey kidney cell line, HFL-1: human embryonic lung cell line, L929: NCTC clone 929, mouse fibroblast cell line, NIH 3T3: mouse embryonic fibroblast cell line, and CHO-K1: Chinese hamster ovary cell line) were distributed in a 96-well plate at the density of 1×10^4 cells/well, which were treated with the compound of the present invention for 24 hours. The water-soluble tetrazolium salt WST-8 was added thereto. The orange colored formazan dye degraded by dehydrogenase in the live cells was read, followed by nonlinear regression to determine 50% growth inhibition concentration.

[2] = Cytotoxicity test (WST-8), NIH 3T3; type: cell-based; settings: mouse, NIH 3T3 embryonic fibroblast cells; NIN3T3, 24 hours
Protocol: as §1

[3] = test system: NFAT5 transcript BGT1 and AR; test: NaCl-mediated up-regulation of NFAT5 transcripts (hypertonic condition), RAW264.7 cells, real-time PCR; type: cell-based, mouse; settings: 1 μM pre-treatment 1 hour, NaCl 45 mM 3 hours
Protocol: It was investigated whether or not the factors regulated by NFAT5 under the hypertonic condition could be affected by the compound of Example 1. Particularly, RAW264.7 cells were distributed in a 6-well plate at the density of 1.5×10^5 cells/well, followed by culture and stabilization in 10% FBS-RPMI 1640 medium. The cells were pre-treated with the compound of Example 1 (1 μM) for 1 hour, and then stimulated with NaCl (45 mM) for 3 hours. mRNA was extracted from the cells, from which cDNA was synthesized.

[4] = target: T1, COX1 (Ovis aries, UniProt P05979); test: COX inhibition, COX assay kit (Table 4); type: biochemical
T1 construct: purchased Cayman Co. 760111
T1 sequence (P05979 25-600): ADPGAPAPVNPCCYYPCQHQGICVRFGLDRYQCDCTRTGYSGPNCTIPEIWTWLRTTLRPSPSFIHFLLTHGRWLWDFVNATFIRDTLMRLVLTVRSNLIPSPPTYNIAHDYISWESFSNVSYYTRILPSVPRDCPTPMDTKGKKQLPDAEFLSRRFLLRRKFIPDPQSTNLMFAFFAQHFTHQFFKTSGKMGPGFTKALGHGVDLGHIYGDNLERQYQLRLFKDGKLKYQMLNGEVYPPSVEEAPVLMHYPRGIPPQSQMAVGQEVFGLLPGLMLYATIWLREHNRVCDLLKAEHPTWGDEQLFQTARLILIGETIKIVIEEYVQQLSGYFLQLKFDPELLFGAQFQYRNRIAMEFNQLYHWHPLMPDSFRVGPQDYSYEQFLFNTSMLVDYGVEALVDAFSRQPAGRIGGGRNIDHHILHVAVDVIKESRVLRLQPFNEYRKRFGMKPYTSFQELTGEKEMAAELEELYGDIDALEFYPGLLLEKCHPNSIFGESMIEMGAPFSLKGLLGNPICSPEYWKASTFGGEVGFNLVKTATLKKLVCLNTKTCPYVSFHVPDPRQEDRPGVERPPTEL
Protocol: (§2) 10 μl of substrate and 10 μl of arachidonic acid were added thereto, followed by reaction for 10 minutes in the darkness. Then, OD590 was measured.

[5] = test system: Th17 cells; test: Differentiation of mouse naïve T cells into Th17 cells; type: cell-based; settings: Rag2 KO/OVA-TCRtg naïve T cells, 3 days, secreted cytokine protein; compared with berberine; FIG. 12
Protocol: Particularly, the transgenic mouse (Rag2 KO/OVA-TCRtg) naïve T cells were cultured under the condition of Th17 cell differentiation (treated with IL-6, IL-1β, and TGF-β along with APC cells) for 3 days. Compared with berberine known as a Th17 differentiation inhibitor, the inhibitory effect of the NFAT5 inhibitor on the differentiation of Th17 was measured by quantifying the secreted cytokine protein. Cell survival rate under the same condition was also measured by CCK-8.

[6] = Cytotoxicity test (WST-8), VERO; type: cell-based; settings: African green monkey, VERO kidney cells
Protocol: as §1

[7] = test system: NFAT5; test: NFAT5 protein in LPS-stimulated spleen cells of collagen-induced arthritis mice; type: in vivo; settings: CIA mouse spleen cells treated with LPS; FIG. 9
From the text: Particularly, the spleen cells of the mouse having arthritis induced by collagen by the same manner as described in Example 11 were stimulated with LPS. Protein was extracted from the cells, followed by quantification of NFAT5 protein.

[8] = Metabolic stability in rat liver microsomes; type: in vitro ADME; settings: rat liver microsome fractions, 30 minutes
Protocol: Particularly, each compound was added to rat and human liver microsome fractions, followed by culture for 30 minutes. Each compound was administered via intravenous injection (iv) and oral-administration (po) to rat at the concentration of 5 mg/kg, followed by making pharmacokinetic profiles.

[9] = Cytotoxicity test (WST-8), HFL-1; type: cell-based; settings: human, HFL-1 embryonic lung cells; HFL-1, 24 hours
Protocol: as §1

[10] = target: T2, COX2 (Ovis aries, UniProt P79208); test: COX inhibition, COX assay kit (Table 5); type: biochemical
T2 construct: purchased Cayman Co. 760111
T2 sequence (P79208 17-603): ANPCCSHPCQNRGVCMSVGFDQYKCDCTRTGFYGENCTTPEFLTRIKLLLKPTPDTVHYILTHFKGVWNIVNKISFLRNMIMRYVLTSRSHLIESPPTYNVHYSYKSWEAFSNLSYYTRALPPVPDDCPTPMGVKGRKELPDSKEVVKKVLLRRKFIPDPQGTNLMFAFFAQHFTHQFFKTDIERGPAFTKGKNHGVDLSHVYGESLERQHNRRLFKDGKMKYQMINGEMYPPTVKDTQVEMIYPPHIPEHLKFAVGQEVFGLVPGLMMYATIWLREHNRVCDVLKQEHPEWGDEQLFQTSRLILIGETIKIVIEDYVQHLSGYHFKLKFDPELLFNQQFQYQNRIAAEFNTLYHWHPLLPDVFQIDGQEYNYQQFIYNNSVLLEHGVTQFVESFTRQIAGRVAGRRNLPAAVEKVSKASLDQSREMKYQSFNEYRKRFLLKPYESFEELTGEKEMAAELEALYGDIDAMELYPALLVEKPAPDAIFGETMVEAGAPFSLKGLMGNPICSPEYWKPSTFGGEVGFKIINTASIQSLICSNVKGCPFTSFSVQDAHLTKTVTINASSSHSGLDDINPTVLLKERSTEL
Protocol: as §2

[11] = Conc. 20 μM, two values per substance
[12] = Conc. 20 μM, two values per substance, read-out: inhibition rate
[13] = Conc. 100 μM, two values per substance
[14] = Conc. 100 μM, two values per substance, read-out: inhibition rate

inhibitory effect on COX1 (in words) [4]: weak inhibitory effect
inhibition rate [4, 11]: 7.4
inhibition at 20 µM [4, 12]: 11.4%
inhibition rate [4, 13]: 23.4
inhibition at 100 µM [4, 14]: 28.4%
IC50 ([4]; Table 4): > 100 µM
remaining compound, Rat (%) [8]: 35 ± 3%
inhibitory effect on COX2 (in words) [10]: weak inhibitory effect
inhibition rate [10, 11]: 15.5
inhibition at 20 µM [10, 12]: 12.1%
inhibition rate [10, 13]: 25.7
inhibition at 100 µM [10, 14]: 36.7%
IC50 ([10]; Table 5): > 100 µM
SMILES: COc1ccc2c(Cc3ccccc3F)c3n(c(=O)c2c1OC)CCc1cc2c(cc1-3)OCO2 [Example 1, 13-(2-fluorobenzyl)-9,10-dimethoxy-5H-[1,3]dioxolo[4,5-g]isoquinolino[3,2-a]isoquinoline-8(6H)-one]
GI50 at 24 h [1]: 40.3 µM
GI50 at 24 h [2]: 7.16 µM
NaCl-mediated up-regulation of BGT1 transcript ([3]; FIG. 5A): not changed
NaCl-mediated up-regulation of AR transcript ([3]; FIG. 5B): not changed
inhibitory effect on the differentiation of Th17 [5]: inhibitory effect on the differentiation of Th17 as similar as berberine
GI50 at 24 h [6]: 84.2 µM
expression of NFAT5 [7]: suppressed
GI50 at 24 h [9]: 26.1 µM
